In one experiment the test system is MCP-1 Induction by CRP. The experiment in a line: Modulation of CRP effects by statin, aspirin and PPAR activators: MCP-1 secretion in HUVEC, sandwich ELISA. The class given is cell-based, human. Conditions: for effect on induction of MCP-1 by CRP (in words): test substance 10 μM. As for the experimental part:
Experiments were performed in HUVEC. […] After 2 hours, the cells were incubated with C-reactive protein or with IL-1β 10 ng/mL for 24 hours. […] Secretion of MCP-1 and RANTES were assessed by sandwich ELISA (Colorimetric Quantikine, by R and D Systems). All determinations were performed in duplicate. Data were expressed as mean±SD of 5-6 separate experiments. Cell viability was assessed by staining with trypan blue.
(ELISA stands for enzyme-linked immunosorbent assay.)

Experiment [1] has as its system HUVEC. In words: MCP-1 secretion by HUVEC, sandwich ELISA. The class given is cell-based, human. How it is done: (§1) Experiments were performed in HUVEC, cultured in 12-well plates in basic endothelial cell medium CS-C, with 10 mM HEPES and 15% human serum (Sigma). Culture supernatants were collected 6-24 hours after stimulation with either IL-1β or CRP, at the concentration indicated. Secretion of MCP-1 and RANTES were assessed by sandwich ELISA (Colorimetric Quantikine, by R and D Systems). All determinations were performed in duplicate. Data were expressed as mean±SD of 5-6 separate experiments. Cell viability was assessed by staining with trypan blue.

In experiment [2] the test system is human umbilical vein endothelial cells (HUVEC). The experiment in a line: Adhesion molecule expression in HUVEC by FACS, in the presence of serum. Format: cell-based. Conditions: 24-hour incubation, HUVEC with human serum. For orientation: A flow cytometer gives signals particle by particle.
Experiment [3] relates to HUVEC. The experiment in a line: RANTES secretion by HUVEC, sandwich ELISA. Format: cell-based, human. How it is done:
as §1

Experiment [4] deals with human umbilical vein endothelial cells (HUVEC). In words: Adhesion molecule expression in HUVEC by FACS, serum-free medium. Format: cell-based. As for the experimental part:
HUVEC were incubated with human C-reactive protein similar to Example 2 except in the absence of serum. Cells were detached by incubation with 10 mmol/L EDTA in PBS (without trypsin), washed with PBS buffer and suspended in PBS with 0.1% sodium azide. Cell were then stained with R-Phycoerythrin labeled monoclonal antibodies (Pharmingen) against the adhesion molecules VCAM-1 (CD106) or ICAM-1 (CD54) or with Phycoerythrin labeled isotype IgG as control. For detection of E-selectin, HUVEC were incubated for 6 hours with C-reactive protein and then stained with a FITC labeled monoclonal antibody against E-selectin (RandD Systems) or the appropriate isotype control (Pasceri et al., 2000). R-Phycoerythrin labeled monoclonal antibodies (Pharmingen) against the C-reactive protein receptors FCγRI and FCγRII (Marnell et al., 1995; Bharadwaj et al., 1999) were also used.
(§2) The staining procedure was performed on ice for 30 minutes, followed by washing. The fluorescence intensity of 9000 cells for each sample was quantified by a FACS CaliburTM analyser (Becton Dickinson). All experiments were performed in triplicate.

Experiment [5] has the same test system. In words: Adhesion molecule expression in HUVEC by FACS, in the presence of serum. Format: cell-based. As for the experimental part: All experiments were performed on human umbilical vein endothelial cells (HUVEC, from Cascade Biology). HUVEC were grown in M199 medium with endothelial cell growth supplement, heparin and 15% fetal bovine serum or human serum. Cells were used at passage 2 to 4.
HUVEC were incubated with human C-reactive protein at the concentration indicated for 24 hours. Cells were detached by incubation with 10 mmol/L EDTA in PBS (without trypsin), washed with PBS buffer and suspended in PBS with 1% FBS and 0.1% sodium azide. Cell were then stained with R-Phycoerythrin labeled monoclonal antibodies (Pharmingen) against the adhesion molecules VCAM-1 (CD106) or ICAM-1 (CD54) or with Phycoerythrin labeled isotype IgG as control. For detection of E-selectin, HUVEC were incubated for 6 hours with C-reactive protein and then stained with a FITC labeled monoclonal antibody against E-selectin (RandD Systems) or the appropriate isotype control (Pasceri et al., 2000). R-Phycoerythrin labeled monoclonal antibodies (Pharmingen) against the C-reactive protein receptors FCγRI and FCγRII (Marnell et al., 1995; Bharadwaj et al., 1999) were also used.
as §2

Where [6] appears, read: CRP 100 μg/mL + test substance 10 μmol/L.
Setting [7] is: CRP 100 μg/mL + test substance 100 μmol/L.
Where [8] appears, read: CRP 100 μg/mL + test substance 1 mmol/L.
Setting [9] is: Homo sapiens, HUVEC, CRP 100 μg/mL + test substance 100 μmol/L.
Where [10] appears, read: CRP 100 μg/mL + test substance 50 μmol/L.
The mark [11] stands for this setting: CRP 100 μg/mL + test substance 200 μmol/L.
Where [12] appears, read: CRP 100 μg/mL + test substance 20 μmol/L.
Where [13] appears, read: C-reactive protein 10 μg/mL, 24-hour incubation, HUVEC with human serum.

The source of these data is US6764826B2, “Inhibitors of C-reactive protein induced inflammation” (Board of Regents, The University of Texas System, priority 2000, dated 2004).

“Also recorded” adds a separate entry of the source.

Take `CCCCC/C=C/C=C1/C(=O)C=C[C@@H]1C/C=C\CCCC(=O)O` [15d-PGJ2, 15-deoxy-^Δ12,14-prostaglandin J2]: in the experiment on MCP-1 Induction by CRP (setting [6]), the “% of Maximal Response” value is 24%, the “-Fold Increase in MCP-1 conc.” value is 1.5 ± 0.6 -Fold and the MCP-1 conc. is on record as 3.4 ± 1.6 ng/mL. For the same molecule, the “effect on induction of MCP-1 by CRP (in words)” value with MCP-1 Induction by CRP is reported as “almost completely abolished”.

With `Cc1cccc(Nc2cc(Cl)nc(SCC(=O)O)n2)c1C` [Wy 14649], in the experiment on MCP-1 Induction by CRP (setting [6]), the “% of Maximal Response” value is 101%, the “-Fold Increase in MCP-1 conc.” value is given as 6.4 ± 2.1 -Fold and the MCP-1 conc. is 13.9 ± 6.0 ng/mL. Also, in the experiment with MCP-1 Induction by CRP (setting [7]), the “% of Maximal Response” value is on record as 30%, the “-Fold Increase in MCP-1 conc.” value is listed as 1.9 ± 0.9 -Fold and the MCP-1 conc. amounted to 4.2 ± 2.2 ng/mL. Moreover, in the experiment with MCP-1 Induction by CRP, the “effect on induction of MCP-1 by CRP (in words)” value is reported as “no effect”. Also, the “effect on secretion of MCP-1 induced by CRP (in words)” value in the experiment on MCP-1 Induction by CRP (test substance 100 μM) was “completely inhibited”.

For `CC(=O)Oc1ccccc1C(=O)O` [aspirin], in the experiment on MCP-1 Induction by CRP (setting [7]), the “-Fold Increase in MCP-1 conc.” value is 6.7 ± 1.9 -Fold and the MCP-1 conc. is given as 14.6 ± 6.7 ng/mL. For the same molecule, in the experiment with MCP-1 Induction by CRP (setting [8]), the “-Fold Increase in MCP-1 conc.” value was 6.4 ± 1.8 -Fold and the MCP-1 conc. was 13.7 ± 6.7 ng/mL. In the experiment on MCP-1 Induction by CRP (setting [9]), the MCP-1 secretion, % of maximal CRP-induced response at 100 µM amounted to 104%. Also, the MCP-1 secretion, % of maximal CRP-induced response at 1000 µM in the experiment on MCP-1 Induction by CRP (Homo sapiens, HUVEC, CRP 100 μg/mL + test substance 1 mmol/L) amounted to 102%. Further, the “effect on the effects of C-reactive protein (MCP-1 induction, in words)” value in the experiment with MCP-1 Induction by CRP (high concentration, up to 1 mM) is given as “did not inhibit”.

`CC1(COc2ccc(CC3SC(=O)NC3=O)cc2)CCCCC1` (stereo not shown) [ciglitazone]: the “-Fold Increase in MCP-1 conc.” value is listed as 4.8 ± 1.5 -Fold with MCP-1 Induction by CRP (setting [10]), 4.1 ± 1.0 -Fold in the experiment on MCP-1 Induction by CRP (setting [7]) and 2.7 ± 0.8 -Fold in the experiment with MCP-1 Induction by CRP (setting [11]). Moreover, the MCP-1 conc. with MCP-1 Induction by CRP (setting [10]) is recorded as 10.2 ± 4.6 ng/mL; with MCP-1 Induction by CRP (setting [7]) it was 8.7 ± 3.4 ng/mL; with MCP-1 Induction by CRP (setting [11]) it was 5.9 ± 2.5 ng/mL. Besides, the MCP-1 secretion, % of maximal CRP-induced response at 50 µM with MCP-1 Induction by CRP (Homo sapiens, HUVEC, CRP 100 μg/mL + test substance 50 μmol/L) was 74%. For the same molecule, the MCP-1 secretion, % of maximal CRP-induced response at 100 µM with MCP-1 Induction by CRP (setting [9]) is 65%. The MCP-1 secretion, % of maximal CRP-induced response at 200 µM in the experiment with MCP-1 Induction by CRP (Homo sapiens, HUVEC, CRP 100 μg/mL + test substance 200 μmol/L) stood at 42%.

In the case of `CC(C)OC(=O)C(C)(C)Oc1ccc(C(=O)c2ccc(Cl)cc2)cc1` [fenofibrate], in the experiment on MCP-1 Induction by CRP (setting [7]), the “-Fold Increase in MCP-1 conc.” value was 0.9 ± 0.2 -Fold and the MCP-1 conc. was 2.1 ± 0.6 ng/mL. Also, the MCP-1 secretion, % of maximal CRP-induced response at 100 µM in the experiment with MCP-1 Induction by CRP (setting [9]) turned out to be 15%.

Take `Cc1c(C)c2c(c(C)c1O)CCC(C)(COc1ccc(CC3SC(=O)NC3=O)cc1)O2` (stereo not shown) [troglitazone]: in the experiment with MCP-1 Induction by CRP (setting [12]), the “-Fold Increase in MCP-1 conc.” value is 5.2 ± 1.7 -Fold and the MCP-1 conc. was 11.4 ± 5.2 ng/mL. Besides, the MCP-1 secretion, % of maximal CRP-induced response at 20 µM with MCP-1 Induction by CRP (Homo sapiens, HUVEC, CRP 100 μg/mL + test substance 20 μmol/L) amounted to 83%.

On to “interleukin-1: Interleukin-1 provided by RandD systems; a well known activator of endothelial cells”, for which the “MCP-1 response in absence of serum” value in the experiment with HUVEC [1] (IL-1β, serum-free medium) is “absence of serum did not change the response”. In the experiment on HUVEC [1] (Interleukin-1β 10 ng/mL, 15% human serum), this molecule showed an MCP-1 concentration of 8.6 ± 3.7 ng/mL. Further, the E-selectin expression result in experiment [2] is on record as “no increase”. In addition, the RANTES expression entry with HUVEC [3] (Interleukin-1β 10 ng/mL) is recorded as “did not induce”. For the same molecule, in experiment [4] (interleukin-1, serum-free medium), the “expression of adhesion molecules” value was “able to induce adhesion molecules”. In addition, the “induction of adhesion molecules expression compared with C-reactive protein 10 μg/mL” value in experiment [5] (interleukin-1 10 ng/mL, same time-intervals (24-hour; 6-hour for E-selectin), HUVEC with human serum) is “similar”.

B1: CRP: Recombinant human C-reactive protein purchased from Biochem; acute phase reactant protein (protein, UniProt P02741 19-224, looked up)
C-reactive protein: QTDMSRKAFVFPKESDTSYVSLKAPLTKPLKAFTVCLHFYTELSSTRGYSIFSYATKRQDNEILIFWSKDIGYSFTVGGSEILFEVPEVTVAPVHICTSWESASGIVEFWVDGKPRVRKSLKKGYTVGAEASIILGQEQDSFGGNFEGSQSLVGDIGNVNMWDFVLSPDEINTIYLGGPFSPNVLNWRALKYEVQGEVFTKPQLWP
For B1, the “CRP concentration already giving significant induction of MCP-1” value in the experiment with HUVEC [1] (24-hour incubation, 15% human serum) was 5 µg/mL. For the same molecule, in the experiment on HUVEC [1] (CRP 10 μg/mL, 24-hour incubation, 15% human serum, baseline 1.1±0.5), the MCP-1 concentration was found to be 2.4 ± 0.9 ng/mL. In the experiment on HUVEC [1] (CRP 100 μg/mL (peak), 24-hour incubation, 15% human serum), this molecule gave an MCP-1 concentration of 9.7 ± 4.8 ng/mL. For the same molecule, the MCP-1 concentrations entry with HUVEC [1] (CRP 100 μg/mL, 24-hour, serum-free medium) was “did not induce a significant increase”. For the same molecule, the “fold-increase of MCP-1 secretion” value in the experiment with HUVEC [1] (CRP 100 μg/mL, 24-hour, versus human albumin 100 μg/mL, 15% human serum) was 7 fold-increase. Further, the E-selectin expression result in experiment [2] is recorded as “no increase”. Besides, the “Secretion of RANTES” value with HUVEC [3] (C-reactive protein 100 μg/mL, 15% human serum) is “not increased”. Moreover, the “expression of adhesion molecules (ICAM-1, VCAM-1, E-selectin)” value in experiment [4] (C-reactive protein 100 μg/mL, 24-hour (6-hour for E-selectin), serum-free medium) is “could not induce; also recorded: did not induce”. Further, in the experiment with MCP-1 Induction by CRP (CRP 100 μg/mL alone, 24 hours), the “% of Maximal Response” value was 100%, the “-Fold Increase in MCP-1 conc.” value is listed as 6.3 ± 1.8 -Fold and the MCP-1 conc. was 13.6 ± 5.4 ng/mL. Also, the E-selectin expression result in experiment [5] (C-reactive protein 10 μg/mL, 6-hour incubation, HUVEC with human serum) is given as “significant increase”. Besides, in experiment [5] (setting [13]), the ICAM-1 expression entry is reported as “large increase” and the VCAM-1 expression entry is reported as “significant increase”. Moreover, the VCAM-1 expression entry in experiment [5] (C-reactive protein 10 μg/mL, 24-hour incubation, HUVEC with human serum, listed as recombinant C-reactive protein) is reported as “large increase”. Moreover, the “further increase in adhesion molecules expression on increase of concentration” value in experiment [5] (C-reactive protein up to 100 μg/mL, compared with 10 μg/mL, 4th passage cells, 15% human serum) is given as “only a modest further increase”. The “further adhesion molecules induction on increase of concentration” value in experiment [5] (C-reactive protein up to 200 μg/mL, compared with 10 μg/mL) was “only a modest further adhesion molecules induction”. Further, the “C-reactive protein concentration at which adhesion molecule expression is nearly maximum” value in experiment [5] (dose response, HUVEC with 15% human serum) was 10 µg/mL.
